By EC50 is commonly meant the concentration needed to bring the measured effect to its halfway point. The low end stands for greater potency, the high end for weaker potency.

One series deals with zebrafish embryos. Kind of series: Phenotypic screen for edema and survival in zebrafish larvae at 72 hpf. The conditions noted are these: for Dead / Edemic 1 (E1) / Edemic 2 (E2) / Edemic 3 (E3) / Wild-type (WT): number of larvae (of 36), 3 μM from 2 hpf, scored at 72 hpf. Here is the method:
The screen was performed in zebrafish embryos using the National Cancer Institute's Developmental Therapeutics Program (NCI/DTP) Diversity Set I. This library contains 1990 compounds selected by pharmacophore modeling to represent the more than 140,000 small molecules maintained in the NCI/DTP Open Repository. Compounds from the NCI/DTP Diversity Set I were diluted to 10 μM in E3 embryo medium (5 mM NaCl, 0.33 mM CaCl2, 0.33 mM MgSO4, and 0.17 mM KCl) in a final DMSO concentration of 0.5% and arrayed in 96-well plates. Beginning at approximately 2 hpf, embryos were transferred to each well in groups of five using a glass pipette. The plates were incubated at 28.5° C. for 70 hours. Individual wells were then scored for a dominant phenotype, representative of at least four of the five embryos. The primary objective was to identify compounds that caused edema in treated embryos at 72 hpf. Small molecules generating edema were retested once for verification, before obtaining additional compound from the NCI/DTP Open Repository.
PTBA was synthesized as described below. Hydroxyurea and aphidicolin were obtained from Sigma-Aldrich. Groups of 20 to 30 chorionated 2 hpf embryos were arrayed in individual wells of 12-well plates. E3 medium was removed with a glass pipette and replaced with 1.5 ml treatment solutions containing 0.5% DMSO in E3 with or without compound at the reported concentrations. Treatments for all studies were initiated at 2 hpf, except for the temporal studies (FIG. 6) and the HUA studies (FIG. 11). HUA studies were performed as described previously (Zhang, L., et al. Cell cycle progression is required for zebrafish somite morphogenesis but not segmentation clock function. Development 135, 2065-2070, (2008)), with the following modifications. HUA in 0.5% DMSO was added at early gastrulation (5 hpf) and PTBA was subsequently added at late gastrulation (8 hpf) to allow for penetration of the proliferation inhibitors. All embryos were incubated at 28.5° C. until the required developmental stage.
Following 70 hours of treatment (as described above), edemic phenotypes in 72 hpf larvae were scored using a phenotype-based classification system. Wild type: no visible edema or developmental delay. […] Significant effects (p<0.05) on survival were determined by two-tailed Fisher's exact test in comparison with the 0 μM PTBA treatment group.
PTBA and methyl-4-(phenylthio)butanoate were synthesized as described above. 4-(Naphthalen-2-ylthio)butanoic acid (NSC2733) and 3-(phenylthio)benzoic acid (NSC113994), were obtained from the NCI/DTP Open Repository. APHA compound 8, Apicidin, butanoic acid, PBA, 4-phenoxybutanoic acid, 5-phenylpentanoic acid, Scriptaid, TSA, and valproic acid were obtained from Sigma-Aldrich. MS-275 and SAHA were obtained from Cayman Chemical Co. 4-(phenylsulfonyl)butanoic acid was obtained from Matrix Scientific. Tubacin was a gift of Dr. Ralph Mazitschek of the Broad Institute (Cambridge, Mass.). The remaining PTBA analogs were synthesized. Three independent groups of 12 chorionated 2 hpf embryos were arrayed in individual wells of 24-well plates. E3 medium was removed with a glass pipette and replaced with 800 μl treatment solutions containing 0.5% DMSO in E3 with or without compound at the reported concentrations.
Phenotypic screening of PTBA analogs was performed identically to the concentration-response experiments detailed above. Embryos were treated with each PTBA analog from 2 to 72 hpf as described above.

The next series relates to renal progenitor cells. Kind of series: In situ hybridization for lhx1a expression in 10-somite embryos (renal progenitor cell expansion). For Lhx1a expansion caused by analog treatment, 200 nM: key: effective (+); partially effective (+/−); ineffective (−); Analogs that killed all embryos at a given concentration before reaching 10 somites are listed as XX. For Lhx1a expansion caused by analog treatment, 3 μM: key: effective (+); partially effective (+/−); ineffective (−); Analogs that killed all embryos at a given concentration before reaching 10 somites are listed as XX. For Lhx1a expansion caused by analog treatment, 400 nM: key: effective (+); partially effective (+/−); ineffective (−); Analogs that killed all embryos at a given concentration before reaching 10 somites are listed as XX. For Lhx1a expansion caused by analog treatment, 800 nM: key: effective (+); partially effective (+/−); ineffective (−); Analogs that killed all embryos at a given concentration before reaching 10 somites are listed as XX. Type of series: in vivo. The conditions noted are these: for Lhx1a expansion caused by analog treatment, 200 nM: 200 nM from 2 hpf; for Lhx1a expansion caused by analog treatment, 400 nM: 400 nM from 2 hpf; for Lhx1a expansion caused by analog treatment, 800 nM: 800 nM from 2 hpf; for responders at 0.2 µM: 200 nM, read-out: Expansion of Cells (including repeats* and recounts**) 200 nM; for responders at 0.4 µM: 400 nM, read-out: Expansion of Cells (including repeats* and recounts**) 400 nM; for responders at 0.8 µM: 800 nM, read-out: Expansion of Cells (including repeats* and recounts**) 800 nM. The method in brief: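 Zebrafish embryos treated with compound, then colorimetric whole-mount in situ hybridization (65° C) for lhx1a mRNA at 10 somites. Embryos with expanded kidney field counted manually as percent of total. EC50 taken as 50% point of percent-expansion trendline; compounds also classed effective, partial or ineffective versus PTBA at matched concentration.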

[1] abbreviates: 3 μM from 2 hpf, 10-somite embryos.
[2] abbreviates: 1.5 μM from 2 hpf, 10-somite embryos.
The mark [3] stands for this setting: Danio rerio, 1.5 μM from 2 hpf, 10-somite embryos, read-out: lhx1a expansion, percent of treated embryos.
Where [4] appears, read: Danio rerio, percent of embryos with expanded kidney field.
Where [5] appears, read: Danio rerio, percent of embryos with expanded kidney field, 1.5 μM, read-out: Expansion of Cells (including repeats* and recounts**) 1.5 μM.
[6] abbreviates: Danio rerio, percent of embryos with expanded kidney field, 3 μM, read-out: Expansion of Cells (including repeats* and recounts**) 3 μM.
[7] abbreviates: Danio rerio, 3 μM from 2 hpf, 10-somite embryos, read-out: lhx1a expansion, percent of treated embryos.

SMILES strings stand for the structures. Read-outs that look alike come from different tables or passages of the source.

Regarding `Cn1cc(C(=O)Cc2ccccc2)cc1/C=C/C(=O)NO` [APHA compound 8, reference compound], in the series with zebrafish embryos, the Dead was 0, the “Edemic 1 (E1)” value is 0, the “Edemic 2 (E2)” value is 0 and the “Edemic 3 (E3)” value stood at 0. For the same compound, the “Wild-type (WT)” value with zebrafish embryos is 36. For the same compound, the “Lhx1a expansion caused by analog treatment, 3 μM” value in the series on renal progenitor cells (setting [1]) is “−”.
For the compound `COC(=O)CCCSc1ccc(C)cc1` [UPHD-00026, methyl 4-[(4-methyl-phenyl)sulfanyl]butanoate], in the series on zebrafish embryos, the Dead is 11, the “Edemic 1 (E1)” value is 0, the “Edemic 2 (E2)” value turned out to be 2 and the “Edemic 3 (E3)” value was found to be 23. Further, the “Wild-type (WT)” value in the series with zebrafish embryos worked out at 0. In the series on renal progenitor cells (10-somite embryos), the “Lhx1a expansion caused by analog treatment, 200 nM” value is reported as “−”; the “Lhx1a expansion caused by analog treatment, 400 nM” value is “−”; the “Lhx1a expansion caused by analog treatment, 800 nM” value is listed as “+”. Besides, in the series on renal progenitor cells (setting [2]), the “Lhx1a expansion caused by analog treatment, 1.5 μM” value is given as “+”. For the same compound, the “Lhx1a expansion caused by analog treatment, 3 μM” value in the series on renal progenitor cells (setting [1]) is recorded as “+”. In addition, the responders at 1.5 µM in the series on renal progenitor cells (setting [3]) was 100%. In addition, in the series on renal progenitor cells (setting [4]), the responders at 0.2 µM stood at 3%, the responders at 0.4 µM amounted to 14% and the responders at 0.8 µM was found to be 49%. The responders at 1.5 µM with renal progenitor cells (setting [5]) was determined as 100%. The responders at 3 µM in the series on renal progenitor cells (setting [6]) is 100%.
Consider `O=C(CCCSc1ccc(Br)cc1)NO` [VNK-I-292, 4-[(4-bromo-phenyl)sulfanyl]-N-hydroxybutanamide], for which, in the series with zebrafish embryos, the Dead worked out at 0, the “Edemic 1 (E1)” value is on record as 23, the “Edemic 2 (E2)” value came out at 12 and the “Edemic 3 (E3)” value is reported as 0. The “Wild-type (WT)” value in the series with zebrafish embryos came out at 1. The “Lhx1a expansion caused by analog treatment, 1.5 μM” value with renal progenitor cells (setting [2]) was “+/−”. In the series on renal progenitor cells (setting [1]), the “Lhx1a expansion caused by analog treatment, 3 μM” value was “+”. In the series with renal progenitor cells (setting [3]), the responders at 1.5 µM amounted to 47%.
`CCCOC(=O)CCCSc1ccccc1` [UPHD-00024, propyl 4-(phenylsulfanyl)butanoate]: in the series on zebrafish embryos, the Dead is listed as 6, the “Edemic 1 (E1)” value worked out at 7, the “Edemic 2 (E2)” value turned out to be 8 and the “Edemic 3 (E3)” value was found to be 15. In the series with zebrafish embryos, the “Wild-type (WT)” value was 0. Also, the “Lhx1a expansion caused by analog treatment, 800 nM” value in the series on renal progenitor cells (10-somite embryos) is “+/−”. Moreover, the “Lhx1a expansion caused by analog treatment, 1.5 μM” value with renal progenitor cells (setting [2]) is “+”. Moreover, in the series with renal progenitor cells (setting [1]), the “Lhx1a expansion caused by analog treatment, 3 μM” value is recorded as “+”. In addition, the responders at 1.5 µM in the series on renal progenitor cells (setting [3]) turned out to be 89%. Moreover, in the series with renal progenitor cells (setting [4]), the responders at 0.2 µM came to 0% and the responders at 0.4 µM is 10%. Further, the responders at 1.5 µM in the series on renal progenitor cells (setting [5]) turned out to be 89%. Besides, the responders at 3 µM in the series with renal progenitor cells (setting [6]) worked out at 94%. A half-maximal response in the series on renal progenitor cells (Danio rerio, first pass EC50 from percent expansion (Excel trendline), average where several experiments) (EC50) required 1.27 µM.
Consider `O=C(CCCCCCC(=O)Nc1ccc([C@H]2O[C@@H](CSc3nc(-c4ccccc4)c(-c4ccccc4)o3)C[C@@H](c3ccc(CO)cc3)O2)cc1)NO` [tubacin, reference compound], for which the “effect on zebrafish embryos in the phenotypic screen” value in the series with zebrafish embryos (3 μM) is reported as “appeared wild-type”. Also, in the series with zebrafish embryos, the Dead is on record as 0, the “Edemic 1 (E1)” value is 0, the “Edemic 2 (E2)” value is given as 0 and the “Edemic 3 (E3)” value worked out at 0. Also, the “Wild-type (WT)” value in the series on zebrafish embryos came to 36. Moreover, the “Lhx1a expansion caused by analog treatment, 3 μM” value in the series with renal progenitor cells (setting [1]) is on record as “−”.
`COc1ccc(SCCCC(=O)NO)cc1` [VNK-I-289, 4-[(4-methoxy-phenyl)sulfanyl]-N-hydroxybutanamide]: in the series with zebrafish embryos, the Dead came to 0, the “Edemic 1 (E1)” value turned out to be 20, the “Edemic 2 (E2)” value is 0 and the “Edemic 3 (E3)” value is given as 0. In the series with zebrafish embryos, the “Wild-type (WT)” value is listed as 16. The “Lhx1a expansion caused by analog treatment, 3 μM” value in the series on renal progenitor cells (setting [1]) was “+/−”. Also, the responders at 3 µM in the series on renal progenitor cells (setting [7]) worked out at 31%.
With `O=C(O)CCCCc1ccccc1` [5-phenylpentanoic acid, reference compound], in the series with zebrafish embryos, the Dead is given as 0, the “Edemic 1 (E1)” value amounted to 0, the “Edemic 2 (E2)” value was 0 and the “Edemic 3 (E3)” value turned out to be 0. The “Wild-type (WT)” value in the series on zebrafish embryos is given as 36. In the series with renal progenitor cells (setting [1]), the “Lhx1a expansion caused by analog treatment, 3 μM” value is “−” and the “lhx1a expansion, percent of treated embryos” value is “no expansion”.
Take `COC(=O)CCCSc1ccc(Br)cc1` [VNK-I-290]: in the series on zebrafish embryos, the Dead is given as 0, the “Edemic 1 (E1)” value was 27, the “Edemic 2 (E2)” value was determined as 1 and the “Edemic 3 (E3)” value is given as 0. Further, the “Wild-type (WT)” value in the series on zebrafish embryos worked out at 8. Besides, the “Lhx1a expansion caused by analog treatment, 3 μM” value in the series with renal progenitor cells (setting [1]) was “+/−”. Besides, the responders at 3 µM in the series with renal progenitor cells (setting [7]) worked out at 74%.
On to `Cc1ccc(SCCCC(=O)NO)cc1` [UPHD-00028, N-hydroxy-4-[(4-methyl-phenyl)sulfanyl]butanamide], for which, in the series on zebrafish embryos, the Dead came out at 22, the “Edemic 1 (E1)” value was 0, the “Edemic 2 (E2)” value was found to be 0 and the “Edemic 3 (E3)” value worked out at 14. Moreover, the “Wild-type (WT)” value in the series with zebrafish embryos is on record as 0. In addition, in the series with renal progenitor cells (10-somite embryos), the “Lhx1a expansion caused by analog treatment, 200 nM” value was “−”; the “Lhx1a expansion caused by analog treatment, 400 nM” value was “−”; the “Lhx1a expansion caused by analog treatment, 800 nM” value is “+”. Also, the “Lhx1a expansion caused by analog treatment, 1.5 μM” value in the series with renal progenitor cells (setting [2]) is listed as “+”. In addition, the “Lhx1a expansion caused by analog treatment, 3 μM” value with renal progenitor cells (setting [1]) is on record as “+”. Also, in the series with renal progenitor cells (setting [3]), the responders at 1.5 µM stood at 97%. Also, in the series with renal progenitor cells (setting [4]), the responders at 0.4 µM worked out at 9% and the responders at 0.8 µM worked out at 61%. For the same compound, the responders at 1.5 µM in the series on renal progenitor cells (setting [5]) came to 97%. Besides, the responders at 3 µM with renal progenitor cells (setting [6]) came out at 100%. Besides, the “Expansion of Cells (including repeats* and recounts**) 3 μM” value in the series on renal progenitor cells (percent of embryos with expanded kidney field, 3 μM) is 100%.
In the case of `O=C(O)CCCSc1ccc2ccccc2c1` [4-(naphthalen-2-ylthio)butanoic acid, 4-(Naphthalen-2-ylthio)butanoic acid, reference compound], in the series with zebrafish embryos, the Dead amounted to 2, the “Edemic 1 (E1)” value is on record as 9, the “Edemic 2 (E2)” value came to 0 and the “Edemic 3 (E3)” value is 0. Further, in the series on zebrafish embryos, the “Wild-type (WT)” value is listed as 25. For the same compound, the “Lhx1a expansion caused by analog treatment, 3 μM” value with renal progenitor cells (setting [1]) is recorded as “−”. Besides, the “lhx1a expansion, percent of treated embryos” value in the series on renal progenitor cells (3 μM from 2 hpf, 10-somite embryos, listed as 4-(napthalen-2-ylthio)butanoic acid) is “no expansion”. In addition, the responders at 3 µM with renal progenitor cells (setting [7]) is 33%.
Turning to `O=C(O)CCCNc1ccccc1` [VNK-I-300, 4-(phenylamino)butanoic acid], in the series on zebrafish embryos, the Dead is reported as 0, the “Edemic 1 (E1)” value amounted to 1, the “Edemic 2 (E2)” value was 0 and the “Edemic 3 (E3)” value is on record as 0. In addition, in the series on zebrafish embryos, the “Wild-type (WT)” value worked out at 35. In the series on renal progenitor cells (setting [1]), the “Lhx1a expansion caused by analog treatment, 3 μM” value is on record as “−”.

For the origin of these results see patent US10160705B2, “Class of HDAC inhibitors expands the renal progenitor cells population and improves the rate of recovery from acute kidney injury” (University of Pittsburgh—Of the Commonwealth System of …, priority 2011, dated 2018).
